Results as given in US20100004171A1, “Therapeutic Methods for Neuropathic Pain” (priority 2006, published 2010).
Where no end group is shown, it is not given here.

How the values were obtained:
NMDA receptors = conditions: cited from earlier work; for effect on hyperalgesia and allodynia: given systemically and locally; for doses at which the effects are seen: reported by some researchers
agrin protein [1] = assay: Western blot of agrin protein in L3-5 spinal cord; type: in vivo, rat
Method: Western blot for detecting protein expression of agrin: Agrin protein was analyzed from L3-5 spinal cord with Western blot as described below at times of 1 day, 3 days, and 7 days post-surgery. The changes in these proteins between sham-operated, nerve-injured (no drug), and nerve-injured (pre-emptive drug) groups were analyzed.
Agrin Protein Extraction: The rats were deeply anesthetized with isoflurane and decapitated. Spinal cord L3-5 was quickly removed and immediately placed into tissue lysis buffer (1 ml, Sigma Co., St. Louis, Mo.) that contained protein enzyme inhibitors (1:100, Halt, Pierce). The tissue was homogenized for 2 min and incubated on ice for 45 min. The sample was then centrifuged at 10,000×g for 30 min at 4° C. The supernatant was transferred to a new tube and centrifuged again for further clarifying. The concentration of the protein was determined by an Agilent's Bio-Rad protein chip (Agilent's 2100 bioanalyzer, Santa Clara, Calif.) and by the […] (reagents from Bio-Rad).
(§1) Western blot: Protein (20 μg) from each sample was mixed with 2× electrophoresis buffer and boiled for 5 min. The samples, along with a negative control, were loaded on 4-15% acrylamide tris-glycine SDS gels and electrophoresed in a cell (Bio-Rad) for approximately 1 hr. A Hybond-P polyvinylidene difluoride membrane (Bio-Rad, Hercules, Calif.) was used for transferring the protein in a mini-trans-blot transfer cell (Bio-Rad) for 2 hr. The membrane was then soaked in 2% milk for 1 hour and probed with monoclonal agrin antibody (Agr510 and Agr530, 1:5000, StressGen Biotechnologies Corp., Victoria, Canada) or β-actin antibody (1:5000) at 4° C. overnight with continual shaking. The following day goat anti-mouse secondary antibody conjugated to Alexa Fluor680 (1:5000, Molecular Probe) was added to the membrane and incubated for 1 hr at room temperature. The samples were washed three times with TBS buffer (Tris Buffered Saline, DAKO, Carpinteria, Calif.) between steps. The membrane was then scanned with an Odyssey (LI-COR) scanner and analyzed by Odyssey software (Li-Cor, Lincoln, Nebr.).
In rats with tactile allodynia (a withdrawal threshold with a filament below 8 g), an intrathecal catheter (PE 10) was installed and linked to an osmotic pump (Alzet) in a 37° C. water bath. Following a bolus injection of SCP-1 (30 nmol/kg, 10 μl), agrin siRNA (100 nM) was intrathecally administered continuously by the pump at a rate of 5 μl/1 hour for 4 hr. The animals were subjected to von Frey filament test every 15 min for 4 hr to determine whether the effects of SCP-1 on allodynia suppression are blocked by agrin siRNA. A control siRNA (nFsiRNA) was applied in the same way. The behavioral data was analyzed for agrin effects. […]

[2] = tested on: tactile allodynia in allodynic rats; assay: Tactile allodynia test (von Frey filaments, paw withdrawal threshold) in CCI (Bennett model) rats; type: in vivo, rat
rodents = conditions: rodents, dose of 6 mmol/kg; cited from earlier work
[3] = tested on: tactile allodynia in allodynic rats; assay: Tactile allodynia test (von Frey filaments, paw withdrawal threshold) in CCI (Bennett model) rats; type: in vivo, rat; conditions: for effect on paw-withdrawal threshold: intrathecal 100 nmol in 10 μl in allodynic rats, day 7 after injury, up to 8 hr
Text: Bennett Model: In this model, approximately 0.8 cm of the left sciatic nerve was exposed and freed with sharpened scissors at middle-thigh level as described by Bennett and Xie.^[76] Four ligatures were placed loosely around the sciatic nerve with 4-0 chromic catgut, with 1 mm space between the ties, which compresses the nerve but epineural blood circulation is preserved. The tissue and skin were closed in layers. […] Most allodynia was seen during the time period of 7-14 days after the surgery.
Intrathecal catheter installation: A PE10 catheter, stretched to a somewhat thinner diameter in the distal part, was introduced into the spinal canal (subarachnoid space) via a 21 G (gauge) cannula between the L5 and L6 lamina and advanced to the lumbar enlargement in rats. The proximal part was tunneled under the skin and led out on the upper dorsal region. The location of the catheter was verified by the injection of 6 μl (50 mg/ml) xylocalne, such that a transient, flaccid paralysis of the legs was produced, and by X-ray after administration of 10 μl iodine contrast medium (Astra, Sweden). The catheter could be kept for up to two weeks in animals.^[79]
(§2) The maximum volume injected at any one time was 10 μl.^[79]
Tactile allodynia test: In a transparent glass chamber (20×20 cm) with a mesh net floor, each animal was subjected to the tactile allodynia test. A positive response is when an innocuous tactile stimulus induces a brief paw withdrawal away from the stimulation, similar to a paw withdrawal due to heat. A set of von Frey filaments from 0.01 to 28 g (Stoelting Co., Wood Dale, Ill.) were applied to the mid-paw of the allodynic rats at 1 gram, and then progressing up or down. The filament was pressed against the plantar surface for 1 to 2 seconds until it bent. Subsequent applications were made with a higher or lower von Frey filament depending on the animal response. The testing always began with normal paws. If a filament induced a brief paw withdrawal of a paw without bending in three out of five tests, the size of the filament was recorded as eliciting a positive withdrawal threshold.^[80] Allodynia was considered to be present when a withdrawal threshold was evoked by a filament corresponding to 8 grams or less.
In rats with tactile allodynia (a withdrawal threshold with a filament below 8 g), an intrathecal catheter (PE 10) was installed and linked to an osmotic pump (Alzet) in a 37° C. water bath. Following a bolus injection of SCP-1 (30 nmol/kg, 10 μl), agrin siRNA (100 nM) was intrathecally administered continuously by the pump at a rate of 5 μl/1 hour for 4 hr. The animals were subjected to von Frey filament test every 15 min for 4 hr to determine whether the effects of SCP-1 on allodynia suppression are blocked by agrin siRNA. A control siRNA (nFsiRNA) was applied in the same way. The behavioral data was analyzed for agrin effects. Immediately after behavioral experiments, the animals were sacrificed and subjected to protein extraction of lumbar spinal cord, followed by Western-blot analysis as described above.
A blind test was designed for intrathecal drug evaluations. Five days after CCI, rats were subjected to tactile allodynia tests with von Frey filaments. If a filament corresponding to 8 grams or less evoked a withdrawal response on the rat paw (at least 3 responses out of 5 stimuli), the value was designated as the allodynia threshold. […] Either a drug (100 nmol in 10 μl saline) or vehicle (only 10 μl saline) was pre-warmed and intrathecally injected into the allodynic rats. Then the rats were assayed for changes in allodynic and hyperalgesic behavior, agrin gene expression, and agrin protein changes. In addition, distribution and amount of agrin in the dorsal horn were visualized using immunostaining of L5 as reported above in Example 7.

[4] = tested on: thermal hyperalgesia in allodynic rats; assay: Thermal hyperalgesia test (paw withdrawal latency) in CCI (Bennett) rats; type: in vivo, rat
agrin protein [5] = assay: Rat lumbar spinal tissue culture, agrin protein by Western blot; type: cell-based
Method: (§3) Spinal cord tissue culture: The dorsal horn of fresh rat lumbar spinal cord was cut into 1-mm sections with a sharp blade under sterile conditions and maintained in culture in 12-well plates with DMEM and 10% FBS. After 2 days, 100 μM NMDA was added to 6 wells. The other 6 wells were used as controls. The culture was maintained for 24 hr, and the tissue subjected to RNA and protein extraction as well as RT-PCR and Western blotting to examine alterations of agrin gene and protein, as described in this Example.
as §1, with “The following day goat anti-mouse secondary antibody conjugated to Alexa Fluor680 (1:5000, Molecular Probe) was added to the membrane and incubated for 1 hr at room temperature. The samples were washed three times with TBS buffer (Tris Buffered Saline, DAKO, Carpinteria, Calif.) between steps.” left out, “Nebr.). […]” for “Nebr.).”

agrin mRNA = assay: Rat lumbar spinal tissue culture, agrin mRNA by RT-PCR; type: cell-based; conditions: for agrin gene expression: 24 h
Method: as §3
Following peripheral nerve injury, large amounts of glutamate, aspartate, and substance P are released into the extracellular space and excite post-synaptic neurons. […] Exogenous NMDA and substance P (“SP”) were used to culture rat lumbar spinal tissue. The normal dorsal part of lumbar spinal cord was cut into 0.5 mm slices and cultured in DMEM plus 10% FBS serum. After culturing for 24 h, the slices were treated with 100 μM NMDA with or without 10 nM substance P. Control slices were not treated with NMDA or substance P. Each group (experimental and control) had six samples. At 6 h and 24 h after treatment, the slices were subjected to RNA and protein extraction. The extractions were then assayed for agrin mRNA and agrin protein as described above in Examples 1-3. Briefly, the agrin mRNA was assayed using RT-PCR using C-terminal agrin primers for 36 cycles; and the agrin protein was assayed using Western Blot.

[6] = tested on: transitory inflammatory-induced hyperalgesia; conditions: pain model with transitory inflammatory-induced hyperalgesia; cited from earlier work
[7] = Solubility for intrathecal injection; type: physicochemical
Method: as §2

## C[C@@H]([C@@H](O)c1ccc(O)cc1)N1CCC(O)(c2ccccc2)CC1 [(1S,2S)-1-(4-hydroxy-phynel)-2-(4-hydroxy-4-phenyl-piperidino)-1-propanol]
NMDA receptors; animal models of neuropathic pain
  effect on hyperalgesia/allodynia: depressed hyperalgesia/allodynia at a dose devoid of adverse effects

## CC(=O)Nc1ccc(O)cc1 [APAP, acetaminophen, reference compound]
Agrin protein [1]; pre-emptive intrathecal injection prior to CCI, 3 and 7 days
  agrin protein: did not prevent the drop in agrin protein
[2]; pre-emptive intrathecal 100 nmol in 10 μl saline immediately prior to CCI, 0, 3, 7 days
  effect on tactile allodynia (paw withdrawal threshold): showed an effect similar to SCP-1
[2]; pre-emptive intrathecal 100 nmol prior to CCI, 7 days after injury
  effect on paw withdrawal threshold at 7 days: sharply reduced
rodents
  lethality: killed all the animals
[3]; intrathecal 100 nmol
  time after injection at which the effect began to diminish: 90 min
[3]; intrathecal 100 nmol in 10 μl
  duration of effect on withdrawal threshold: short duration
[3]
  effect on paw-withdrawal threshold: a less robust effect on the withdrawal threshold
[3]; intrathecal, same dose and volume (100 nmol in 10 μl)
  maximum withdrawal threshold: about 22 g
[4]; intrathecal 100 nmol in 10 μl, CCI (Bennett) rat model
  increase in paw-withdrawal latency (thermal hyperalgesia): a similar effect on latency
[4]; intrathecal 100 nmol, 120 min
  effect on paw-withdrawal latency at 120 min post injection: dropped to the initial latency value

## C[C@]12N[C@H](Cc3ccccc31)c1ccccc12 [MK801]
NMDA receptors
  effect on hyperalgesia and allodynia: suppress hyperalgesia and allodynia
  doses at which the effects are seen: only be seen at doses that induce ataxia
Agrin protein [5]; 20 μM MK801 with either NMDA alone or NMDA plus substance P, 24 hr
  effect on agrin protein decrease from NMDA receptor over-stimulation: blocked agrin decrease

## CN[C@H](CC(=O)O)C(=O)O [NMDA]
Agrin mRNA; 100 μM NMDA with or without SP, 6 h
  agrin mRNA: No decrease in agrin mRNA
Agrin mRNA; 100 μM NMDA, compared to controls without NMDA
  agrin gene expression: visually less
Agrin protein [5]; 100 μM NMDA, 24 h
  agrin protein: a decrease in agrin

## O=C(CNS(=O)(=O)c1ccccc1C(=O)O)Nc1ccc(O)cc1 [SCP-M1]
[6]
  analgesic activity: high analgesic activity
[3]
  effect on paw-withdrawal threshold: a faster response and a faster return to normal values for withdrawal thresholds than was seen in SCP-1
[7]
  solubility compared with SCP-1: very similar to that of SCP-1
[7]; 45% cyclodextrin in saline, 10 mM solutions prepared
  solubility in 45% 2-hydroxypropyl-α-cyclodextrin in saline: can dissolve them
[7]; water
  solubility in water: do not dissolve readily in water

## CNC1(c2ccccc2Cl)CCCCC1=O (stereo not drawn) [ketamine]
NMDA receptors
  effect on hyperalgesia and allodynia: suppress hyperalgesia and allodynia
  doses at which the effects are seen: only be seen at doses that induce ataxia

## SP: substance P, increases NMDA receptor excitability by removing magnesium blocking (RPKPQQFFGLM-NH2; ends and bridges not checked; UniProt P20366 58-68, looked up)
Agrin mRNA; 10 nM substance P added to 100 μM NMDA
  agrin gene expression: enhanced the down-regulation by NMDA

## agrin siRNA: siRNA for C-terminal agrin, position 5994; sense GCCCUCAAAGUCCUGUGAUtt (SEQ ID NO: 11), antisense SEQ ID NO: 12 (sense GCCCUCAAAGUCCUGUGAUTT; antisense AUCACAGGACUUUGAGGGCTT; chemistry not given here)
Agrin protein [1]; siRNA plus SCP-1, allodynic rats, 2 h post-injection
  agrin protein level when injected with SCP-1: did not return to normal levels
[2]; siRNA 100 nM intrathecally at 5 μl/hour continuously after bolus injection of SCP-1
  effect on the SCP-1 effect on withdrawal threshold: antagonized the SCP-1 and inhibited the effect on withdrawal threshold
